Source: patent US11123295B2, “Encholeated antifungal compounds for central nervous system delivery and treatment of Cryptococcus infections” (priority 2016, dated 2021)
“And” between values parts separate entries of the source, which are not always exact repeats. Equal entries are not always repeated.

What was measured:
Assay type in all cases: in vivo
C. neoformans strain H99 [1] = assay: Trial 2: survival of C. neoformans-infected mice; conditions: oral 250 mg/kg/day in drinking water
Description: Mice were inoculated with C. neoformans, strain H99/ATCC 208821, (American Type Culture Collection, Rockville, Md.), which was prepared as follows. Cells from a C. neoformans suspension were streaked onto yeast extract peptone dextrose (YPD) agar plates, which were then incubated at 37° C. for 48 hours. A well-separated colony was resuspended in 25 milliliters YPD broth containing chloramphenicol and incubated in a flask on a shaking incubator at 37° C. overnight. The cells were recovered by centrifugation at 4,000 rpm for 5 minutes and washed two times in phosphate-buffered saline (PBS) by resuspension and centrifugation. Challenge organisms were quantified by hemocytometry and were diluted with PBS to a final concentration of 10^5 organisms per milliliter. The viable count was confirmed by serially diluting the C. neoformans suspension and plating the inoculum onto YPD agar plates. […]
Survival and brain studies for each of the three trials were used to determine antifungal efficacy. Mortality was recorded throughout each of the three trials. […] The microbiological response to antifungal treatment was evaluated by concentration (in CFU per gram) of C. neoformans in brain tissue. […] Culture plates were incubated at 37° C. for 48 hours, after which the CFU were counted and the number of CFU per gram of brain tissue was calculated. […] The culture-negative plates were counted as having 0 CFU/g. […]

C. neoformans strain H99 [2] = assay: Trial 3: survival of C. neoformans-infected mice
Description: (§1) Animals were dosed once or twice daily as stated in Table 3 following daily body weight measurements. 5 mice were used per treatment group and a group of 5 infected, untreated mice was used as a control. […] Fluconazole, where indicated, was dosed either alone or in combination at 25 mg/kg/day in two doses by oral gavage. Agent administration began 72 hours following infection and continued once daily for 28 consecutive days.
Survival and brain studies for each of the three trials were used to determine antifungal efficacy. Mortality was recorded throughout each of the three trials. The animals were necropsied at death and the brain was removed aseptically, weighed, and homogenized in 1 milliliter sterile water. The microbiological response to antifungal treatment was evaluated by concentration (in CFU per gram) of C. neoformans in brain tissue. Serial dilutions using sterile PBS of homogenized brain were plated in duplicate onto YPD agar plates. Culture plates were incubated at 37° C. for 48 hours, after which the CFU were counted and the number of CFU per gram of brain tissue was calculated. The method was sensitive for detection of >10 CFU/g. The culture-negative plates were counted as having 0 CFU/g.

C. neoformans strain H99 [3] = assay: Trial 3: CFU per gram of brain tissue at death; conditions: PO BID 25 mg/kg/day, individual mice 1-5
Description: as §1
Survival and brain studies for each of the three trials were used to determine antifungal efficacy. Mortality was recorded throughout each of the three trials. The animals were necropsied at death and the brain was removed aseptically, weighed, and homogenized in 1 milliliter sterile water. The microbiological response to antifungal treatment was evaluated by concentration (in CFU per gram) of C. neoformans in brain tissue. Serial dilutions using sterile PBS of homogenized brain were plated in duplicate onto YPD agar plates. Culture plates were incubated at 37° C. for 48 hours, after which the CFU were counted and the number of CFU per gram of brain tissue was calculated. The method was sensitive for detection of >10 CFU/g. The culture-negative plates were counted as having 0 CFU/g. […]

`Nc1[nH]c(=O)ncc1F` [5-Flucytosine] was tested, and the Median survival (C. neoformans strain H99 [1]) was 34 days and the “Median survival” value (C. neoformans strain H99 [2]; oral 250 mg/kg/day in water) was 47 days.

For `OC(Cn1cncn1)(Cn1cncn1)c1ccc(F)cc1F` [Fluconazole], the “Median survival” value (C. neoformans strain H99 [2]; PO BID 25 mg/kg/day) was 53 days and the “Number of CFU/g of Brain” value (C. neoformans strain H99 [3]) was 4,200,000 CFU/g and 4,300,000 CFU/g and 3,900,000 CFU/g and 6,800,000 CFU/g and 11,300,000 CFU/g.
